Measurements: patent publication US11414374B2, “Crystalline forms of vilanterol trifenatate and processes for their preparation” (Hovione Scientia Limited, priority 2017, dated 2022)
One block for each compound: values may come before it.

Experiments:
Type in all cases: physicochemical
[1] = Stability test (sealed vial 18 h), form by XRPD; details: resulting form
[2] = Storage stability of exposed powder at 25° C. and 60% RH for seven days, compared by XRPD; details: 25° C. 60% RH, 7 d, resulting form
Procedure: Approximately 30 mg of exposed powder of comparative form 1 and new forms II and III, respectively, were stored at 25′C and 60% RH for seven days. Each powder was then analyzed by XRPD and its diffraction pattern was compared with that of untreated sample.

XRPD after Grinding = details: resulting form after grinding
[3] = Stability test (exposed sample 16 h), form by XRPD; details: resulting form
[4] = Stability test (60° C. 75% RH-3 d), form by XRPD; details: resulting form
[5] = DSC - differential scanning calorimetry; details: for DSC (onset) endo. degradation: endothermic event: degradation; for DSC (onset) endo. solvent loss + melting: endothermic event: solvent loss + melting (Form 6: + Form 2 melting; Form 14: + Form 3 melting); for DSC (onset) endo. solvent loss: endothermic event: solvent loss
Procedure: The analysis was carried out using a DSC Q200 TA instruments equipped with a refrigerator cooling system (RCS40) and autosampler. The sample was weighed in an aluminum hermetic pan with pinhole. The analysis was performed heating the sample from 25° C. to 350° C. at 10° C./min.

[6] = TGA / TGA-EGA thermogravimetric analysis with evolved gas analysis; details: for EGA: evolved solvent identified
Procedure: The analysis was carried out using the Mettler Toledo TGA/DSC1. The sample was weighed in an aluminum pan hermetically sealed with an aluminum pierced cover. The analysis was performed heating the sample from 25° C. to 320° C. at 10° C./min. TGA-FTIR coupled with Thermo Nicoled is 10 spectometer. The analysis was carried out using the mettler toledo TGA/DSC1. The sample was weighed in an aluminum pan hermetically sealed with an aluminum pierced cover. The analysis was performed heating the sample from 25° C. to 320° C. at 10° C./min. The evolved gas is compared with ft-ir spectra database for identification.

[7] = Dynamic vapor sorption (DVS) analysis / hygroscopicity (EP 7.0 classification); details: for Hygroscopically (DVS): DVS hygroscopicity class; for XRPD after DVS: resulting form after DVS
Procedure: The hygroscopicity value is directly obtained from the sorption row at 80% RH, cycle 1.
Hygroscopicity of a sample of each of new form II and comparative form I was determined using the protocol provided below in conditions of 80% RH and 25° C.
The sample was subjected to DVS measuring using SMS-DVS intrinsic. The kinetic moisture sorption measurement was performed at 25° C. and in a RH % range described in the following: • From 40% RH to 90% RH • Form 90% RH to 0% RH • From 0% RH to 90% RH • From 90% RH to 0% RH
The sample was analyzed by XRPD after the analysis.
The hygroscopicity was calculated using the following equation: % Weight Change=[(W2−W1)/W1]*100 W1: weight of sample at the start of the experiment (25° C. and 40% RH) W2: weight of sample at 25° C. and 80% RH in the first absorption cycle

Stability test (sealed vial 18 h) ([1]; listed as Form 8): Form 8
Stability test (25° C. 60% RH-7 d) ([2]; listed as Form 8): Strong crystallinity
XRPD after Grinding (XRPD after Grinding; listed as Form 8): Strong crystallinity
Stability test (exposed sample 16 h) ([3]; listed as Form 8): Form 8
Stability test (60° C. 75% RH-3 d) ([4]; listed as Form 8): Partial conversion
DSC (onset) endo. degradation ([5]; listed as Form 8): endo. 191 °C
DSC (onset) endo. solvent loss + melting ([5]; listed as Form 8): endo. 136 °C solvent
DSC (onset) endo. solvent loss ([5]; listed as Form 8): endo. 66 °C solvent loss
EGA ([6]; listed as Form 8): Anisole
TGA overall weight loss ([6]; overall loss of the named solvent(s), listed as Form 8): of approx.. 68% w/w
Hygroscopically (DVS) ([7]; listed as Form 8): Not hygroscopic
XRPD after DVS ([7]; listed as Form 8): Form 8
Compound: OCc1cc([C@@H](O)CNCCCCCCOCCOCc2c(Cl)cccc2Cl)ccc1O [form VIII, vilanterol trifenatate]

Stability test (sealed vial 18 h) ([1]; listed as Form 9): Form 9
Stability test (25° C. 60% RH-7 d) ([2]; listed as Form 9): Form 9
XRPD after Grinding (XRPD after Grinding; listed as Form 9): Amorphous
Stability test (exposed sample 16 h) ([3]; listed as Form 9): Form 9
Stability test (60° C. 75% RH-3 d) ([4]; listed as Form 9): Partial conversion
DSC (onset) endo. degradation ([5]; listed as Form 9): endo. 188 °C
DSC (onset) endo. solvent loss + melting ([5]; listed as Form 9): endo. 100 °C solvent
DSC (onset) endo. solvent loss ([5]; listed as Form 9): endo. 68 °C solvent loss
EGA ([6]; listed as Form 9): Nitromethane
Hygroscopically (DVS) ([7]; listed as Form 9): Slightly
XRPD after DVS ([7]; listed as Form 9): Low crystallinity
Compound: OCc1cc([C@@H](O)CNCCCCCCOCCOCc2c(Cl)cccc2Cl)ccc1O [form IX, vilanterol trifenatate]
